From patent US4643987A, “Modified glycopeptides” (Eli Lilly and Company, priority 1985, dated 1987)
Converted amounts (≈) assume the structure as drawn.

Tests used:
[1] = tested on: Staphylococcus aureus NRRL B313; assay: agar-dilution MIC; format: cell-based
[2] = tested on: Staphylococcus aureus V41; assay: agar-dilution MIC; format: cell-based
[3] = tested on: Staphylococcus aureus X400; assay: agar-dilution MIC; format: cell-based
[4] = tested on: Staphylococcus aureus S13E; format: cell-based; conditions: agar dilution
[5] = tested on: Staphylococcus epidermidis EP11; assay: agar-dilution MIC; format: cell-based
[6] = tested on: Staphylococcus epidermidis 222; assay: agar-dilution MIC; format: cell-based
[7] = tested on: Streptococcus pyrogenes C203; assay: agar-dilution MIC; format: cell-based
[8] = tested on: Streptococcus pneumoniae Park 1; format: cell-based; conditions: agar dilution
[9] = tested on: Streptococcus faecium ATCC 9790; assay: agar-dilution MIC; format: cell-based
[10] = tested on: Streptococcus sp. group D 2041; assay: agar-dilution MIC; format: cell-based
[11] = tested on: Haemophilus influenzae C.L.; assay: agar-dilution MIC; format: cell-based
[12] = tested on: Haemophilus influenzae 76; assay: agar-dilution MIC; format: cell-based
[13] = tested on: Staphylococcus aureus; assay: experimental bacterial infection in mice, ED50; format: in vivo; conditions: two doses, subcutaneously
Protocol: (§1) Some of the compounds of this invention have also shown in vivo antimicrobial activity against experimental bacterial infections. When two doses of test compound were administered to mice in experimental infections, the activity observed was measured as an ED50 value [effective dose in mg/kg to protect 50% of the test animals: see Warren Wick, et al., J. Bacteriol. 81, 233-235 (1961)].

[14] = tested on: Streptococcus pneumoniae; assay: experimental bacterial infection in mice, ED50; format: in vivo; conditions: two doses, subcutaneously
Protocol: as §1

[15] = tested on: Streptococcus pyogenes; assay: experimental bacterial infection in mice, ED50; format: in vivo; conditions: two doses, subcutaneously
Protocol: as §1

| Compound | MIC [1] [µg/mL] | MIC [2] [µg/mL] | MIC [3] [µg/mL] | MIC [4] [µg/mL] | MIC [5] [µg/mL] | MIC [6] [µg/mL] | MIC [7] [µg/mL] | MIC [8] [µg/mL] | MIC [9] [µg/mL] | MIC [10] [µg/mL] | MIC [11] | MIC [12] | ED50 [13] | ED50 [14] | ED50 [15] |
| --- | --- | --- | --- | --- | --- | --- | --- | --- | --- | --- | --- | --- | --- | --- | --- |
| CCCCCCCCOc1ccc(C(=O)N[C@@]2(C)C[C@H](O[C@H]3[C@H](Oc4c5cc6cc4Oc4ccc(cc4Cl)[C@@H](O)[C@@H](NC(=O)[C@@H](CC(C)C)NC)C(=O)N[C@@H](CC(N)=O)C(=O)N[C@H]6C(=O)N[C@H]4C(=O)N[C@H](C(=O)N[C@H](C(=O)O)c6cc(O)cc(O)c6-c6cc4ccc6O)[C@H](O)c4ccc(c(Cl)c4)O5)O[C@H](CO)[C@@H](O)[C@@H]3O)O[C@@H](C)[C@H]2O)cc1 [Compound 1, N^van --[4-(n-octyloxy)benzoyl]vancomycin] | 1 (≈ 0.595 µM) | 1 (≈ 0.595 µM) | 2 (≈ 1.19 µM) | 1 (≈ 0.595 µM) | 16 (≈ 9.51 µM) | 4 (≈ 2.38 µM) | 2 (≈ 1.19 µM) | 2 (≈ 1.19 µM) | 0.5 (≈ 0.297 µM) | 1 (≈ 0.595 µM) | -- (-- = not active at 128 mcg/ml) | -- (-- = not active at 128 mcg/ml) | – | – | – |
| CCCCCCCCc1ccc(C(=O)N[C@@]2(C)C[C@H](O[C@H]3[C@H](Oc4c5cc6cc4Oc4ccc(cc4Cl)[C@@H](O)[C@@H](NC(=O)[C@@H](CC(C)C)NC)C(=O)N[C@@H](CC(N)=O)C(=O)N[C@H]6C(=O)N[C@H]4C(=O)N[C@H](C(=O)N[C@H](C(=O)O)c6cc(O)cc(O)c6-c6cc4ccc6O)[C@H](O)c4ccc(c(Cl)c4)O5)O[C@H](CO)[C@@H](O)[C@@H]3O)O[C@@H](C)[C@H]2O)cc1 [Compound 2, N^van --[4-(n-octyl)benzoyl]vancomycin] | 0.5 (≈ 0.3 µM) | 0.5 (≈ 0.3 µM) | 0.5 (≈ 0.3 µM) | 0.5 (≈ 0.3 µM) | 8 (≈ 4.8 µM) | 1 (≈ 0.6 µM) | 0.25 (≈ 0.15 µM) | 0.5 (≈ 0.3 µM) | 0.125 (≈ 0.075 µM) | 0.125 (≈ 0.075 µM) | -- (-- = not active at 128 mcg/ml) | -- (-- = not active at 128 mcg/ml) | 3.78 mg/kg/2 | 0.72 mg/kg/2 | 1.0 mg/kg/2 |
| CCCCCCCCc1ccc(C(=O)N(C)C(CC(C)C)C(=O)NC2C(=O)NC(CC(N)=O)C(=O)NC3C(=O)NC4C(=O)NC(C(=O)NC(C(=O)O)c5cc(O)cc(O)c5-c5cc4ccc5O)C(O)c4ccc(c(Cl)c4)Oc4cc3cc(c4OC3OC(CO)C(O)C(O)C3OC3CC(C)(N)C(O)C(C)O3)Oc3ccc(cc3Cl)C2O)cc1 (stereo not drawn) [Compound 3, N^leu --[4-(n-octyl)benzoyl]vancomycin] | 2 (≈ 1.2 µM) | 2 (≈ 1.2 µM) | 2 (≈ 1.2 µM) | 2 (≈ 1.2 µM) | 16 (≈ 9.61 µM) | 2 (≈ 1.2 µM) | 1 (≈ 0.6 µM) | 1 (≈ 0.6 µM) | 1 (≈ 0.6 µM) | 1 (≈ 0.6 µM) | 128 µg/mL (≈ 76.8 µM) | 64 µg/mL (≈ 38.4 µM) | – | – | – |
| CN[C@H](CC(C)C)C(=O)N[C@H]1C(=O)N[C@@H](CC(N)=O)C(=O)N[C@H]2C(=O)N[C@H]3C(=O)N[C@H](C(=O)N[C@H](C(=O)O)c4cc(O)cc(O)c4-c4cc3ccc4O)[C@H](O)c3ccc(c(Cl)c3)Oc3cc2cc(c3O[C@@H]2O[C@H](CO)[C@@H](O)[C@H](O)[C@H]2O[C@H]2C[C@](C)(NC(=O)c3ccc(OC)cc3)[C@H](O)[C@H](C)O2)Oc2ccc(cc2Cl)[C@H]1O [Compound 4, N^van --(4-methoxybenzoyl)vancomycin] | 2 (≈ 1.26 µM) | 2 (≈ 1.26 µM) | 2 (≈ 1.26 µM) | 2 (≈ 1.26 µM) | 8 (≈ 5.05 µM) | 2 (≈ 1.26 µM) | 1 (≈ 0.632 µM) | 0.5 (≈ 0.316 µM) | 2 (≈ 1.26 µM) | 8 (≈ 5.05 µM) | 128 µg/mL (≈ 80.8 µM) | 128 µg/mL (≈ 80.8 µM) | – | – | – |
| CN[C@H](CC(C)C)C(=O)N[C@H]1C(=O)N[C@@H](CC(N)=O)C(=O)N[C@H]2C(=O)N[C@H]3C(=O)N[C@H](C(=O)N[C@H](C(=O)O)c4cc(O)cc(O)c4-c4cc3ccc4O)[C@H](O)c3ccc(c(Cl)c3)Oc3cc2cc(c3O[C@@H]2O[C@H](CO)[C@@H](O)[C@H](O)[C@H]2O[C@H]2C[C@](C)(NC(=O)CC(C)Oc3ccccc3)[C@H](O)[C@H](C)O2)Oc2ccc(cc2Cl)[C@H]1O (stereo partly drawn) [Compound 6, N^van --(1-oxo-3-phenoxy-n-butyl)vancomycin] | 1 (≈ 0.621 µM) | 2 (≈ 1.24 µM) | 2 (≈ 1.24 µM) | 2 (≈ 1.24 µM) | 8 (≈ 4.96 µM) | 2 (≈ 1.24 µM) | 1 (≈ 0.621 µM) | 1 (≈ 0.621 µM) | 2 (≈ 1.24 µM) | 4 (≈ 2.48 µM) | -- (-- = not active at 128 mcg/ml) | -- (-- = not active at 128 mcg/ml) | 3.7 mg/kg/2 | 1.8 mg/kg/2 | 3.2 mg/kg/2 |
| CN[C@H](CC(C)C)C(=O)N[C@H]1C(=O)N[C@@H](CC(N)=O)C(=O)N[C@H]2C(=O)N[C@H]3C(=O)N[C@H](C(=O)N[C@H](C(=O)O)c4cc(O)cc(O)c4-c4cc3ccc4O)[C@H](O)c3ccc(c(Cl)c3)Oc3cc2cc(c3O[C@@H]2O[C@H](CO)[C@@H](O)[C@H](O)[C@H]2O[C@H]2C[C@](C)(NC(=O)CC(C)c3cccs3)[C@H](O)[C@H](C)O2)Oc2ccc(cc2Cl)[C@H]1O (stereo partly drawn) [Compound 7, N^van --[1-oxo-3-(2-thienyl)-n-butyl]vancomycin] | 1 (≈ 0.624 µM) | 1 (≈ 0.624 µM) | 1 (≈ 0.624 µM) | 2 (≈ 1.25 µM) | 8 (≈ 5 µM) | 2 (≈ 1.25 µM) | 1 (≈ 0.624 µM) | 0.5 (≈ 0.312 µM) | 2 (≈ 1.25 µM) | 4 (≈ 2.5 µM) | -- (-- = not active at 128 mcg/ml) | 128 µg/mL (≈ 79.9 µM) | 3.05 mg/kg/2 | 2.3 mg/kg/2 | 3.38 mg/kg/2 |
| CC(C)C[C@H](C(=O)N[C@H]1C(=O)N[C@@H](CC(N)=O)C(=O)N[C@H]2C(=O)N[C@H]3C(=O)N[C@H](C(=O)N[C@H](C(=O)O)c4cc(O)cc(O)c4-c4cc3ccc4O)[C@H](O)c3ccc(c(Cl)c3)Oc3cc2cc(c3O[C@@H]2O[C@H](CO)[C@@H](O)[C@H](O)[C@H]2O[C@H]2C[C@](C)(NC(=O)CSc3ccccc3)[C@H](O)[C@H](C)O2)Oc2ccc(cc2Cl)[C@H]1O)N(C)C(=O)CSc1ccccc1 [Compound 12, N^van,N^leu-di-[1-oxo-2-(phenylthio)ethyl]vancomycin] | 16 (≈ 9.14 µM) | 16 (≈ 9.14 µM) | 32 (≈ 18.3 µM) | 32 (≈ 18.3 µM) | 128 (≈ 73.2 µM) | 64 (≈ 36.6 µM) | 8 (≈ 4.57 µM) | 8 (≈ 4.57 µM) | 32 (≈ 18.3 µM) | 64 (≈ 36.6 µM) | -- (-- = not active at 128 mcg/ml) | -- (-- = not active at 128 mcg/ml) | – | – | – |
| CN[C@H](CC(C)C)C(=O)N[C@H]1C(=O)N[C@@H](CC(N)=O)C(=O)N[C@H]2C(=O)N[C@H]3C(=O)N[C@H](C(=O)N[C@H](C(=O)O)c4cc(O)cc(O)c4-c4cc3ccc4O)[C@H](O)c3ccc(c(Cl)c3)Oc3cc2cc(c3O[C@@H]2O[C@H](CO)[C@@H](O)[C@H](O)[C@H]2O[C@H]2C[C@](C)(N)[C@H](O)[C@H](C)O2)Oc2ccc(cc2Cl)[C@H]1O [vancomycin, Vancomycin, reference compound] | – | – | – | – | – | – | – | – | – | – | – | – | 1.8-3.7 mg/kg/2 | 0.90-0.93 mg/kg/2 | 0.99-1.1 mg/kg/2 |
| N^leu --(4-methoxybenzoyl)vancomycin [Compound 5] | 2 | 2 | 4 | 4 | 16 | 4 | 2 | 2 | 4 | 8 | -- (-- = not active at 128 mcg/ml) | -- (-- = not active at 128 mcg/ml) | – | – | – |
| N^leu -[1-oxo-2-(phenylthio)ethyl]vancomycin [Compound 11] | 4 | 4 | 8 | 4 | 16 | 8 | 4 | 2 | 8 | 16 | -- (-- = not active at 128 mcg/ml) | -- (-- = not active at 128 mcg/ml) | – | – | – |
| N^van -[1-oxo-2-(phenylthio)ethyl]vancomycin [Compound 10] | 1 | 1 | 1 | 1 | 4 | 2 | 0.5 | 0.5 | 1 | 4 | 128 µg/mL | 32 µg/mL | 2.3 mg/kg/2 | 1.9 mg/kg/2 | 4.45 mg/kg/2 |
